Test systems include LOX IMVI melanoma; MOLT-4 leukemia; TK-10 renal; SW-620 colon; UACC-257 melanoma; NCI-H23 lung; HCT-15 colon; KM12 colon; OVCAR-3 ovarian; IGROV1 ovarian.
What all share (test): DTP human tumour cell line panel, 48 h

This note sets out measurements from PubChem BioAssay (NCI).

The TGI is the concentration at which net growth stops. Low readings indicate more potent growth arrest, high ones less potent growth arrest.

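The compound was tested at five concentrations on cells cultured in 96-well plates, with a 48-hour exposure period. TGI is the concentration that stops growth completely.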

In the case of `OCC1OC(O[C@H]2CN3[C@H](O)[C@@H](O)[C@H](O)[C@H]3C2O)C(O)C(O)C1O` (stereo not given in full), the TGI with LOX IMVI melanoma, with MOLT-4 leukemia, in the experiment with TK-10 renal, with SW-620 colon, in the experiment with UACC-257 melanoma and in the experiment on NCI-H23 lung was greater than 100 µM each time. Besides, the total growth inhibition concentration (TGI) in the experiment on HCT-15 colon, with KM12 colon, in the experiment on OVCAR-3 ovarian and in the experiment with IGROV1 ovarian was greater than 100 µM throughout.

Turning to `c1ccc(-c2ccc(N=NN3CCCC3)cc2)cc1`, the TGI in the experiment on LOX IMVI melanoma, in the experiment on MOLT-4 leukemia, with TK-10 renal, in the experiment on SW-620 colon, in the experiment with UACC-257 melanoma and with NCI-H23 lung was greater than 100 µM in each case. In addition, the total growth inhibition concentration (TGI) in the experiment with HCT-15 colon, in the experiment on KM12 colon, in the experiment with OVCAR-3 ovarian and with IGROV1 ovarian was greater than 100 µM in each case.

`CC(O)(C(=O)N(O)c1ccc(Cl)cc1)c1ccc(Cl)cc1` (stereo not given): the TGI in the experiment with LOX IMVI melanoma was greater than 100 µM; in the experiment with MOLT-4 leukemia, 42.9 µM; in the experiment with TK-10 renal, greater than 100 µM; in the experiment with SW-620 colon it was greater than 100 µM; with UACC-257 melanoma it was 65.1 µM; in the experiment on NCI-H23 lung it was 59.7 µM. Further, the TGI in the experiment with HCT-15 colon is 65.7 µM; in the experiment with KM12 colon it was greater than 100 µM; in the experiment with OVCAR-3 ovarian, 72.8 µM; in the experiment with IGROV1 ovarian it was greater than 100 µM.

Take `O=C1NN=C(c2c[nH]c3ccccc23)CC1NCc1ccccc1` (stereo not given): the concentration for total growth inhibition (TGI) in the experiment with LOX IMVI melanoma, with MOLT-4 leukemia, in the experiment with TK-10 renal, in the experiment with SW-620 colon, in the experiment with UACC-257 melanoma and with NCI-H23 lung was greater than 100 µM in each case. In addition, the TGI in the experiment with HCT-15 colon, in the experiment with KM12 colon, in the experiment with OVCAR-3 ovarian and in the experiment with IGROV1 ovarian was greater than 100 µM in each case.
